Data from patent publication US12281119B2, “Imidazo[2,1-f][1,2,4]triazin-4-amine derivatives as TLR7 agonist” (BEIGENE, LTD., priority 2019, dated 2025).

Assays:
human TLR 8 protein = molecular target: T1, human TLR 8 protein (Homo sapiens, UniProt Q9NR97); assay: TLR8 stimulation determined using HEK-Blue Detection; type: cell-based; conditions: HEK-Blue hTLR8 cells, 16 hr, relative to Resiquimod or Motolimod maximum
T1 construct: expressed in transfected cells; host or cells: HEK293 (HEK-Blue hTLR8)
T1 sequence (Q9NR97 27-1041): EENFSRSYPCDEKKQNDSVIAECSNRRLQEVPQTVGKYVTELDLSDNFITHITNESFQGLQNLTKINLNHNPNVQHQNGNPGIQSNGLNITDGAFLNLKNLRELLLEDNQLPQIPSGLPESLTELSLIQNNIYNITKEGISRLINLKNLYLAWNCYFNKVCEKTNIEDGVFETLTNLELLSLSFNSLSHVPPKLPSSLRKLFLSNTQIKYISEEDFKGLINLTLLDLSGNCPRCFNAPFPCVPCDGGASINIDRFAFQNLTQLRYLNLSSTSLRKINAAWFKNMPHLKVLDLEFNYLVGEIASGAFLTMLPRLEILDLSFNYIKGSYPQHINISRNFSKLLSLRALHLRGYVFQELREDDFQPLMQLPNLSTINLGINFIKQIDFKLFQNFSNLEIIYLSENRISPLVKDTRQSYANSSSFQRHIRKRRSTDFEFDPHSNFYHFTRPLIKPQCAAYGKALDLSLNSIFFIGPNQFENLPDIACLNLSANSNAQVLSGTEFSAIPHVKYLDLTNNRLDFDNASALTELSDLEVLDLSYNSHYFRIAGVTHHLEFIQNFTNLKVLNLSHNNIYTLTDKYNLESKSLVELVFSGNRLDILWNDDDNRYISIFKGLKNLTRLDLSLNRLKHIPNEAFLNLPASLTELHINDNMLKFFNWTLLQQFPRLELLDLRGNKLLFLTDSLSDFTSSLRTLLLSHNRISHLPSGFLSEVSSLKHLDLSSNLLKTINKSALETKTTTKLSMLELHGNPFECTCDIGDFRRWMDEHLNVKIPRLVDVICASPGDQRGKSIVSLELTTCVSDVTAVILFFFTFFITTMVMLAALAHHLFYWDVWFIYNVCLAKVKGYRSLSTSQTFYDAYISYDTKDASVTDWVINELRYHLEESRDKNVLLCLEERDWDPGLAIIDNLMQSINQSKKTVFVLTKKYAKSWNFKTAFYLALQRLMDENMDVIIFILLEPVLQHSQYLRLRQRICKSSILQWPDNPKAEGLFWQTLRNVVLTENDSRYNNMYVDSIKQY
Method in brief: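 HEK-Blue hTLR8 cells with NF-κB/AP-1-driven SEAP reporter, 40000 cells/well, treated with 10-point dilutions (1 nM-10 uM final, 0.1% DMSO) for 16 hr at 37° C. SEAP read as OD 620-655 nm. EC50 derived from percent of maximum activation set by Resiquimod or Motolimod.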

human TLR7 = molecular target: T2, human TLR7 (Homo sapiens, UniProt Q9NYK1); assay: TLR7 stimulation determined using HEK-Blue Detection; type: cell-based; parameters: expressed in transfected cells; host or cells: HEK293 (HEK-Blue hTLR7); conditions: HEK-Blue hTLR7 cells, HEK-Blue Detection (A77-A124), 16 hr, relative to Resiquimod maximum
T2 sequence (Q9NYK1 27-1049): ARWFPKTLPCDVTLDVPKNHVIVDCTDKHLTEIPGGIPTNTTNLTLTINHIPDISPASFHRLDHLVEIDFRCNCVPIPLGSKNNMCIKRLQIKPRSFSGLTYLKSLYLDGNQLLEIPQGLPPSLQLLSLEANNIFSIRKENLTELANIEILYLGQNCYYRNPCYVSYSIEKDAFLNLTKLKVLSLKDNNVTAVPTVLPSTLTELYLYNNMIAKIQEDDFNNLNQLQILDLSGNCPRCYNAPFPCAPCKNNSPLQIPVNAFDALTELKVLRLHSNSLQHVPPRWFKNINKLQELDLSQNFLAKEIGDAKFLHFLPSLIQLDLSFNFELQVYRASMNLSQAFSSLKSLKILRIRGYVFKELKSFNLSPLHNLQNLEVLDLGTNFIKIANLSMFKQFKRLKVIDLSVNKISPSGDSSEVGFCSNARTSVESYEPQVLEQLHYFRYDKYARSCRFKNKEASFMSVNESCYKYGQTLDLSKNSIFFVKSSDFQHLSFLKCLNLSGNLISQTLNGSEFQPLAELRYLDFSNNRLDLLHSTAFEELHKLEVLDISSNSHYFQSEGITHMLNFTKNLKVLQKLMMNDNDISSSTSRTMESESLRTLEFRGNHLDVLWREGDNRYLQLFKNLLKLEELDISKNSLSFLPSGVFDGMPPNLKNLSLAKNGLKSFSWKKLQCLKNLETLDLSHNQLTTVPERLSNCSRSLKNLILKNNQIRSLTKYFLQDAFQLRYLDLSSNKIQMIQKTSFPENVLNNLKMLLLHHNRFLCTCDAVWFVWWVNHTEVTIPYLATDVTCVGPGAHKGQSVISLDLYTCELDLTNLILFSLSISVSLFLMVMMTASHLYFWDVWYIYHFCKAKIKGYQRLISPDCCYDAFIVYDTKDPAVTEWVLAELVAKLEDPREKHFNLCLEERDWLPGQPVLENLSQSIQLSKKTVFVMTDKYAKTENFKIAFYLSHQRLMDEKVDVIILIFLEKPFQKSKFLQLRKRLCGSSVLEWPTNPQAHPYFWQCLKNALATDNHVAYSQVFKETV
Excerpt: TLR7 Stimulation Determined Using HEK-Blue Detection
This assay was designed for studying the stimulation of human TLR7 protein in HELK-Blue hTLR7 tool cell line by monitoring the activation of NF-κB. HEK-Blue hTLR7 cells were obtained by co-transfection of the hTLR7 gene and an optimized secreted embryonic alkaline phosphatase (SLAP) reporter gene into HEK293 cells. The SLAP reporter gene was placed under the control of the IFN-β minimal promoter fused to five NF-κB and AP-1-binding sites. Stimulation with a TLR7 ligand activates NF-κB and AP-1 which induce the expression of SLAP. Levels of SLAP can be easily determined with HEK-Blue Detection, a cell culture medium that allows for real-time detection of SLAP. HLK-Blue Detection contains all the nutrients necessary for cell growth and a specific SLAP color substrate. The hydrolysis of the substrate by SLAP produces a purple/blue color that can be measured with a spectrophotometer.
When growing to 50-80%0 confluency, HLK-Blue hTLR7 cells were plated into 96-well plate (costar 3599) at a density of 40000 cells/well. Then compounds were added with serial dilutions over 10 points with a 0.04 nM-10 μM final concentration range in 0.1% DMSO/BLK-Blue Detection. The plates were then incubated for 16 hr at 37° C. in […] and vortex for 30s before measurement. The optical density at 620-655 nm was read on BMG PHLRAstar FSX instrument. The EC50 for each compound was determined by calculating the percentages of the maximum activation identified with Resiquimod.

SMILES | EC50 (human TLR 8 protein) | EC50 (human TLR7)
CCCC(CCO)Oc1nc(N)c2ncc(Cc3ccc(OCC(C)NC)nc3)n2n1 (single isomer, unassigned) [Compound A122, (R or S)-3-((4-amino-7-((6-(2-(methylamino)propoxy)pyridin-3-yl)methyl)imidazo[2,1-f][1,2,4]triazin-2-yl)oxy)hexan-1-ol] | 113 nM | 6 nM
CCCC(CCO)Oc1nc(N)c2ncc(Cc3ccc(OCCNC)cc3C)n2n1 (single isomer, unassigned) [Compound A107, (R or S)-3-((4-amino-7-(2-methyl-4-(2-(methylamino)ethoxy)benzyl)imidazo[2,1-f][1,2,4]triazin-2-yl)oxy)hexan-1-ol] | 16 nM | 1.3 nM
CCCC(CCO)Oc1nc(N)c2ncc(Cc3ccc(OCCNC)c(C)c3)n2n1 (single isomer, unassigned) [Compound A103, (R or S)-3-((4-amino-7-(3-methyl-4-(2-(methylamino)ethoxy)benzyl)imidazo[2,1-f][1,2,4]triazin-2-yl)oxy)hexan-1-ol] | 47 nM | 2.4 nM
CCCC(CCO)Oc1nc(N)c2ncc(Cc3ccc(CCNC)cc3)n2n1 (single isomer, unassigned) [Compound A119, (R or S)-3-((4-amino-7-(4-(2-(methylamino)ethyl)benzyl)imidazo[2,1-f][1,2,4]triazin-2-yl)oxy)hexan-1-ol] | 2970 nM | 146 nM
CCC[C@H](C)Oc1nc(N)c2ncc(Cc3ccc(OCCNC)nc3)n2n1 [Compound A90, (S)-7-((6-(2-(methylamino)ethoxy)pyridin-3-yl)methyl)-2-(pentan-2-yloxy)imidazo[2,1-f][1,2,4]triazin-4-amine] | 112 nM | 8.9 nM
CCCC(CCO)Oc1nc(N)c2ncc(Cc3ccc(OCCNC)c(F)c3F)n2n1 (single isomer, unassigned) [Compound A111, (R or S)-3-((4-amino-7-(2,3-difluoro-4-(2-(methylamino)ethoxy)benzyl)imidazo[2,1-f][1,2,4]triazin-2-yl)oxy)hexan-1-ol] | 47 nM | 1.9 nM
CCCC(CCO)Oc1nc(N)c2ncc(Cc3ccc(OCCNC)cc3)n2n1 (single isomer, unassigned) [Compound A93, (S or R) 3-((4-amino-7-(4-(2-(methylamino)ethoxy)benzyl)imidazo[2,1-f][1,2,4]triazin-2-yl)oxy)hexan-1-ol] | 13.5 nM | 1.7 nM
CCCC(CCO)Oc1nc(N)c2ncc(Cc3cc(OCCNC)ccc3OC)n2n1 (single isomer, unassigned) [Compound A113, (R or S)-3-((4-amino-7-(2-methoxy-5-(2-(methylamino)ethoxy)benzyl)imidazo[2,1-f][1,2,4]triazin-2-yl)oxy)hexan-1-ol] | 98 nM | 24 nM
CCCC(CCO)Oc1nc(N)c2ncc(Cc3ccc(OCCNC)cc3F)n2n1 (single isomer, unassigned) [Compound A115, (R or S)-3-((4-amino-7-(2-fluoro-4-(2-(methylamino)ethoxy)benzyl)imidazo[2,1-f][1,2,4]triazin-2-yl)oxy)hexan-1-ol] | 7 nM | 0.72 nM
CCCC(CCO)Oc1nc(N)c2ncc(Cc3ccc(OCCNC)cc3)n2n1 (centres unmarked) [Compound A85, 3-((4-amino-7-(4-(2-(methylamino)ethoxy)benzyl)imidazo [2,1-f][1,2,4]triazin-2-yl)oxy)hexan-1-ol] | 41 nM | 4.5 nM
CCCC(CCO)Oc1nc(N)c2ncc(Cc3ccc(OC)c(OCCNC)c3)n2n1 (single isomer, unassigned) [Compound A117, (R or S)-3-((4-amino-7-(4-methoxy-3-(2-(methylamino)ethoxy)benzyl)imidazo[2,1-f][1,2,4]triazin-2-yl)oxy)hexan-1-ol] | 532 nM | 13 nM
CCCC(CCO)Oc1nc(N)c2ncc(Cc3ccc(OCCNC)c(Cl)c3)n2n1 (centres unmarked) [Compound A102, 3-((4-amino-7-(3-chloro-4-(2-(methylamino)ethoxy)benzyl)imidazo[2,1-f][1,2,4]triazin-2-yl)oxy)hexan-1-ol] | 134 nM | 3.7 nM
CCCC(CCO)Oc1nc(N)c2ncc(Cc3ccc(OC(C)CNC)nc3)n2n1 (single isomer, unassigned) [Compound A109, (3R or S)-3-((4-amino-7-((6-((1-(methylamino)propan-2-yl)oxy)pyridin-3-yl)methyl)imidazo [2,1-f][1,2,4]triazin-2-yl)oxy)hexan-1-ol] | 47 nM | 3.4 nM
CCC(CC)Oc1nc(N)c2ncc(Cc3ccc(OCCNC)nc3)n2n1 [Compound A83, 7-((6-(2-(methylamino)ethoxy)pyridin-3-yl)methyl)-2-(pentan-3-yloxy)imidazo[2,1-f][1,2,4]triazin-4-amine] | 458 nM | 42.6 nM
CCCC(CCO)Oc1nc(N)c2ncc(Cc3ccc(OCCNC)c4ccccc34)n2n1 (single isomer, unassigned) [Compound A124, (R or S)-3-((4-amino-7-((4-(2-(methylamino)ethoxy)naphthalen-1-yl)methyl)imidazo[2,1-f][1,2,4]triazin-2-yl)oxy)hexan-1-ol] | 105 nM | 1.2 nM
CCCC(C)Oc1nc(N)c2ncc(Cc3ccc(OCCNC)nc3)n2n1 (centres unmarked) [Compound A77, 7-((6-(2-(methylamino)ethoxy)pyridin-3-yl)methyl)-2-(pentan-2-yloxy)imidazo[2,1-f][1,2,4]triazin-4-amine] | 293 nM | 19.2 nM
